Consider 1 compound from ChEMBL document CHEMBL4622963, “Optimization of Nicotinamides as Potent and Selective IRAK4 Inhibitors with Efficacy in a Murine Model of Psoriasis” (ACS Med Chem Lett, 2020).

Series [1] addresses Mast/stem cell growth factor receptor Kit (Homo sapiens, UniProt P10721). Put plainly: Inhibition of recombinant N-terminal GST-tagged human cKit (544 to end residues) expressed in baculovirus infected Sf21 cells.
Series [2] is described as follows: Stability in human liver microsomes assessed as parent compound remaining. In kind it is ADME, Microsome.
For series [3], the species on record is Mus musculus. Put plainly: animal or person. The note with it: C57BL/6, po, 144 h, read-out: INH.
Series [4] deals with T1, Interleukin-1 receptor-associated kinase 4 (Homo sapiens, UniProt Q9NWZ3).
T1 sequence (Q9NWZ3 whole entry): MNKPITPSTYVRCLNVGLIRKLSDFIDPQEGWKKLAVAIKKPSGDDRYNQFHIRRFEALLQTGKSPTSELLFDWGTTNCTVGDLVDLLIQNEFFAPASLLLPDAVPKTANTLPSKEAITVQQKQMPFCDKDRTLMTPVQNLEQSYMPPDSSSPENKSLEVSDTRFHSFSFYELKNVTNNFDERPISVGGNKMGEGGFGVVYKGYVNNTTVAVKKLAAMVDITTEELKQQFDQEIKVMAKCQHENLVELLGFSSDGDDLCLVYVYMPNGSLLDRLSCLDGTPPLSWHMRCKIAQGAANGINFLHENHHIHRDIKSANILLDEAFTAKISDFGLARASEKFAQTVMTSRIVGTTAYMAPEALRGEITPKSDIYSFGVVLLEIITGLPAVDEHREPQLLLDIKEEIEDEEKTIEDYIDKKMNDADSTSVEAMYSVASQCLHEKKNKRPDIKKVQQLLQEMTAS
Kind of series: Inhibition of IRAK4 in human whole blood assessed as inhibition of LTA-induced IL-6 production preincubated for 30 mins followed by LTA-stimulation and measured after 5 hrs by ELISA. In kind it is tissue-based. (In general: An ELISA detects its analyte on a solid surface through an enzyme-linked reagent.)

Series [5] is described as follows: AUC in mouse at 5 mg/kg, po via gavage measured up to 24 hrs by LC-MS analysis. In kind it is ADME, organism-based. On the set-up: time < 24 hr, dose 5 mg/kg, route oral. Conditions: in vivo.
The target in series [6] is T2, Interleukin-1 receptor-associated kinase 3 (Homo sapiens, UniProt Q9Y616).
T2 sequence (Q9Y616 whole entry): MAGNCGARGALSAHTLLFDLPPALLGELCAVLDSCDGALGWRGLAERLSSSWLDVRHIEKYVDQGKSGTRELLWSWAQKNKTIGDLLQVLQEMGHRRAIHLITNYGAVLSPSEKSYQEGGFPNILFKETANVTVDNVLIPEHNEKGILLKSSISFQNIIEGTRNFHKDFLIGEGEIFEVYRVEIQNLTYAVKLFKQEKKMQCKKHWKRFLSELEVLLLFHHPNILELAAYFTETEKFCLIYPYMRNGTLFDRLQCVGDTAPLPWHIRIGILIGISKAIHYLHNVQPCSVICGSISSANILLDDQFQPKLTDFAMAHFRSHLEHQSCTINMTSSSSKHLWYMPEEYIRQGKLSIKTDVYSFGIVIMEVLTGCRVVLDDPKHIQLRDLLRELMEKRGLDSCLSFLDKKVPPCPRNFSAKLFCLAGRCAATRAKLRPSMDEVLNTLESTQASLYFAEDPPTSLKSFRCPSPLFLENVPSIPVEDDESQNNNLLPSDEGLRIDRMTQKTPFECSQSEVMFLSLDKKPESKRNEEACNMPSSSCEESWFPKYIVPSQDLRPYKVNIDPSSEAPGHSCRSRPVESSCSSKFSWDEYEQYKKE
Put plainly: Inhibition of human wild type partial length IRAK3 (147 to 596 residues) expressed in bacterial expression system.

The nature of series [7]: Drug uptake in imiquimod-induced C57BL/6 mouse model of psoriasis at 3 mg/kg, po dosed via gavage twice daily and measured after 8 hrs by LC-MS analysis. In kind it is ADME, organism-based. Conditions: in vivo, read-out: Drug uptake.
Series [8] is described as follows: Drug uptake in imiquimod-induced C57BL/6 mouse model of psoriasis at 1 mg/kg, po dosed via gavage twice daily and measured after 8 hrs by LC-MS analysis. In kind it is ADME, organism-based. The note with it: in vivo, read-out: Drug uptake.
Series [9] is described as follows: Drug uptake in imiquimod-induced C57BL/6 mouse model of psoriasis at 10 mg/kg, po dosed via gavage twice daily and measured after 8 hrs by LC-MS analysis. The note with it: in vivo, read-out: Drug uptake. In kind it is ADME, organism-based.
A short description of series [10]: Oral bioavailability in mouse at 5 mg/kg administered via gavage measured up to 24 hrs by LC-MS analysis. The series is classed as ADME, organism-based. The note with it: in vivo.
For series [11], the system named is Mus musculus. Put plainly: Protection against po dosed imiquimod-induced psoriasis in C57BL/6 mouse assessed as reduction in clinical signs of psoriasis administered via gavage twice daily and measured on day 6. In kind it is functional, organism-based.
Series [12] deals with TRAF2 and NCK-interacting protein kinase (Homo sapiens, UniProt Q9UKE5). Put plainly: Inhibition of human wild type partial length TNIK (D4-K311 residues) expressed in bacterial expression system.
TRAF2 and NCK-interacting protein kinase, sequence (Q9UKE5 whole entry, the tested form may be a part): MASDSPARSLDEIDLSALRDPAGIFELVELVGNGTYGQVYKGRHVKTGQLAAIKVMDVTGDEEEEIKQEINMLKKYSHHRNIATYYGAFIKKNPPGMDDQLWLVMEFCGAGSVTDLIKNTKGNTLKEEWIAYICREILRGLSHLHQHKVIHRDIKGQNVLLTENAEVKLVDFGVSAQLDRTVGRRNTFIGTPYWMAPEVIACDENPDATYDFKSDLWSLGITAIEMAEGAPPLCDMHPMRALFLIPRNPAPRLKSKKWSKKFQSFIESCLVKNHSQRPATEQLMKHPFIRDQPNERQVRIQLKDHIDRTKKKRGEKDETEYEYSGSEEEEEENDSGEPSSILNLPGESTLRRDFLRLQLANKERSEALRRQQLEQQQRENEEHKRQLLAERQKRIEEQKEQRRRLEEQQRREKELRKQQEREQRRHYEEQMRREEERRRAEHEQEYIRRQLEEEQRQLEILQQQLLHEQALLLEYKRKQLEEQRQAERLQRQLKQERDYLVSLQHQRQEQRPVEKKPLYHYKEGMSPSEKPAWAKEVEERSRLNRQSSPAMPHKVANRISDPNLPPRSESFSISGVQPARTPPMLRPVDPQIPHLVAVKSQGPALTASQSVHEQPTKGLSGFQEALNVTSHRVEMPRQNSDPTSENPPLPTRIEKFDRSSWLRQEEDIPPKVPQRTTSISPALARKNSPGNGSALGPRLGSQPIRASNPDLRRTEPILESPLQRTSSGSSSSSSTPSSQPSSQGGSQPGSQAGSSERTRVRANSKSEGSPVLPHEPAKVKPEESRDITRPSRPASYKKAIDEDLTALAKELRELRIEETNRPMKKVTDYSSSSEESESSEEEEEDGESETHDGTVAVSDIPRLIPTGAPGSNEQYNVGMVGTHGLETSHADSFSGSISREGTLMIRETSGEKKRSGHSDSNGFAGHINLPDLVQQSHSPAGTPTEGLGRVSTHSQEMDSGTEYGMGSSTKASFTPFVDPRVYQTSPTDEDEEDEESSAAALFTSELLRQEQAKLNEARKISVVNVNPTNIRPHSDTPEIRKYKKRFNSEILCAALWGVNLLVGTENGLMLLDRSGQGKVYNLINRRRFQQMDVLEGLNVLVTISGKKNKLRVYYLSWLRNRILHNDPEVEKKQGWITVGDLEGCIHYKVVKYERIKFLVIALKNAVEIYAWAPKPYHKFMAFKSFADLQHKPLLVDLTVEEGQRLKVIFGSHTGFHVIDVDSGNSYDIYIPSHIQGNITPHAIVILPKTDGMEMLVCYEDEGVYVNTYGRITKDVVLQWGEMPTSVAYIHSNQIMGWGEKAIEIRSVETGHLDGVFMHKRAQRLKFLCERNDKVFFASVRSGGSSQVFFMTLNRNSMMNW
For series [13], the species on record is Mus musculus. Put plainly: animal or person. Conditions: C57BL/6, po, 144 h, read-out: INH. This is another data set of the same source.
Series [14] in a line: Drug uptake in imiquimod-induced C57BL/6 mouse model of psoriasis at 0.3 mg/kg, po dosed via gavage twice daily and measured after 2 hrs by LC-MS analysis. In kind it is ADME, organism-based. Conditions: in vivo, read-out: Drug uptake.
Series [15] is described as follows: Drug uptake in imiquimod-induced C57BL/6 mouse model of psoriasis at 10 mg/kg, po dosed via gavage twice daily and measured after 2 hrs by LC-MS analysis. The series is classed as ADME, organism-based. The note with it: in vivo, read-out: Drug uptake.
Series [16] can be described thus: Toxicity in po dosed imiquimod-induced C57BL/6 mouse model of psoriasis assessed as drug tolerability. In kind it is organism-based. Conditions: in vivo.
Series [17] deals with T3, Interleukin-1 receptor-associated kinase 4 (Mus musculus) (UniProt Q8R4K2).
T3 sequence (whole entry): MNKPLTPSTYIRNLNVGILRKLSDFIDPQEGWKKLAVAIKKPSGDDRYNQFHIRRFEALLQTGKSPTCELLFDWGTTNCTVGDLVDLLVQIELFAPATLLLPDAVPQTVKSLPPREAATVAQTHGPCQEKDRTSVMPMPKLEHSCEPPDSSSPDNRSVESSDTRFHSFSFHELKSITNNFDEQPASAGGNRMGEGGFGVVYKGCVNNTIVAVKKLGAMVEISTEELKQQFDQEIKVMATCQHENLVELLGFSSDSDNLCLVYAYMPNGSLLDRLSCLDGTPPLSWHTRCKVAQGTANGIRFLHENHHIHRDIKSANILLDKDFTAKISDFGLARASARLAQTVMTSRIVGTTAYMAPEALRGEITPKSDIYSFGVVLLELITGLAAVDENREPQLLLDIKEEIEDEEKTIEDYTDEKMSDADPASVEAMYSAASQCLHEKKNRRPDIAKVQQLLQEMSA
Put plainly: In vivo Inhibition of IRAK4 in LTA-treated BALB/c mouse assessed as suppression of IL-6 level in serum at 1 mg/kg by ELISA relative to control. In kind it is functional, organism-based.

The species named for series [18] is Mus musculus. Kind of series: animal or person. Conditions: C57BL/6, po, 144 h, read-out: INH. This is another data set of the same source.
Series [19] can be described thus: Drug uptake in imiquimod-induced C57BL/6 mouse model of psoriasis at 1 mg/kg, po dosed via gavage twice daily and measured after 2 hrs by LC-MS analysis. In kind it is ADME, organism-based. The note with it: in vivo, read-out: Drug uptake.
For series [20], the species on record is Mus musculus. Kind of series: animal or person. The note with it: C57BL/6, po, 144 h, read-out: INH. The source holds these as a separate data set.
The target of series [21] is Tyrosine-protein kinase Lck (Homo sapiens, UniProt P06239). Kind of series: Inhibition of N-terminal His6-tagged human full length recombinant LCK expressed in baculovirus infected Sf21 cells.
Tyrosine-protein kinase Lck, sequence (P06239 whole entry): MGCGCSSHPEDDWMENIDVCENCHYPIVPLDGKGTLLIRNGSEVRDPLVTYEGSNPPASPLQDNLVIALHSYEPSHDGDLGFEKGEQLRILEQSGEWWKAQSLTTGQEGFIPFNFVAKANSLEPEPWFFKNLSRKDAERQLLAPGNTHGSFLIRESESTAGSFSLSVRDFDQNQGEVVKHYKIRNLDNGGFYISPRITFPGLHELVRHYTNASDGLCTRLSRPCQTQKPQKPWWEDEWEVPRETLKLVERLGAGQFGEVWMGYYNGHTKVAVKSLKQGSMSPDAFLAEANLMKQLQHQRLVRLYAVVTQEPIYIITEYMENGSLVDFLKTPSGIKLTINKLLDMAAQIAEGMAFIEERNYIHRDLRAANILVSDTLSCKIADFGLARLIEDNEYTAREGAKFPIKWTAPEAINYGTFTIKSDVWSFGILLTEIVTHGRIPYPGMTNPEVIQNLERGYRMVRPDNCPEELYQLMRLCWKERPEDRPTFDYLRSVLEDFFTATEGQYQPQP
For series [22], the species on record is Mus musculus. Kind of series: animal or person. The note with it: C57BL/6, po, 144 h, read-out: INH. This is another data set of the same source.

Mast/stem cell growth factor receptor Kit, sequence (P10721 whole entry): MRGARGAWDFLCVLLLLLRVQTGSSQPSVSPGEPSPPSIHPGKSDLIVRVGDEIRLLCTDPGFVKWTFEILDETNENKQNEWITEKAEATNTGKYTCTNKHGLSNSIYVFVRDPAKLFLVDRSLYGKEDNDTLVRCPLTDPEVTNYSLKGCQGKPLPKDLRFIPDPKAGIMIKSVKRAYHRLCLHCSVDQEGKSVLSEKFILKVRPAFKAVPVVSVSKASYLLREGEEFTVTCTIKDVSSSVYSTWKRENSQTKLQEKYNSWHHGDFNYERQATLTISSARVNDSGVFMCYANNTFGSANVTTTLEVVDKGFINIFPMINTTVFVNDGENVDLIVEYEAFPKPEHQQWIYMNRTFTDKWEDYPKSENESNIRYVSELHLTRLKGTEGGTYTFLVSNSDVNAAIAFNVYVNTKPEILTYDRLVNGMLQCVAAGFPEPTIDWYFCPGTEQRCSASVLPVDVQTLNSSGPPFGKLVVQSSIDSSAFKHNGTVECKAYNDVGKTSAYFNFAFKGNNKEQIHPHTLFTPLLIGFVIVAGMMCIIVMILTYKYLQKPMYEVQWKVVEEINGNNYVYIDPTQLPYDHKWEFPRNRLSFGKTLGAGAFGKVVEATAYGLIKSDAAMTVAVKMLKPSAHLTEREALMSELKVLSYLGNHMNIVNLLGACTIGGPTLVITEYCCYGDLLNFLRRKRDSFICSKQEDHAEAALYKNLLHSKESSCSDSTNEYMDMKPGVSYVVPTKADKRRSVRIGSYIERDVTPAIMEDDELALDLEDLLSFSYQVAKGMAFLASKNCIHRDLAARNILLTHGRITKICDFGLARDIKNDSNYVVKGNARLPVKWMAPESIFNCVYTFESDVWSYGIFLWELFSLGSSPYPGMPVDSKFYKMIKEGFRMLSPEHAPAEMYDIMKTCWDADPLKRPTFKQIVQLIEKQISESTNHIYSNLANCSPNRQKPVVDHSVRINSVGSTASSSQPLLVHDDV

On to `CC(C)Nc1cc(Nc2nc3ccnn3cc2F)ncc1C(=O)NC[C@@H](F)C(C)(C)O`, for which the 50% inhibitory concentration (IC50) is greater than 2 µM in series [1]; 0.92 µM in series [4]; 0.76 µM in series [6]; 0.13 µM in [12]; greater than 2 µM in [21]. Moreover, the Stability in series [2] stood at 93%. In addition, the inhibition in vivo at 3 mg/kg in the series filed under Mus musculus [3] came to 41%. The compound also gave an area under the curve (AUC) at 24 h in series [5] of 2400 nM·h. Besides, the concentration at 8 h turned out to be 0.031 µM in series [7], 0.012 µM in series [8] and 0.494 µM in series [9]. In addition, the bioavailability in series [10] is greater than 100%. The Activity entry was “Dose-dependent effect” in the series with Mus musculus [11] and “Non-Toxic” in series [16]. Further, the inhibition in vivo at 1 mg/kg in the series listed under Mus musculus [13] was determined as 27%; in the series filed under Mus musculus [20], 17%. In addition, the results for the concentration at 2 h in series [14], in series [15] and in series [19] were 0.042 µM, 9.4 µM and 0.4 µM, respectively. The inhibition in series [17] came to 68%. Besides, the inhibition in vivo at 10 mg/kg is 43% in the series listed under Mus musculus [18] and 64% in the series listed under Mus musculus [22].

As usually defined, the IC50 is the point on the concentration scale where inhibition reaches its midpoint. For orientation: AUC means concentration integrated over time. The low end stands for less exposure, the high end for more exposure. A word on the bioavailability: it is dose-corrected exposure relative to a reference, in per cent. Read a low bioavailability as poor availability. By inhibition is commonly meant the change of the read-out against control, counted positive when it falls.
